Tested on: SMN2 mRNA in tissues of C/C-allele SMA mice
Test: SMN2 mRNA RT-qPCR splicing assay in animal tissues
Format: in vivo
Details: brain and muscle, 10 mg/kg BID oral gavage 10 days, versus vehicle (FIG. 6)
Description: The reverse transcription-quantitative PCR-based (RT-qPCR) assay is used to quantify the levels of the full length and Δ7 SMN2 mRNA in tissues from mice treated with test compound.
Protocol. C/C-allele SMA mice are treated by oral gavage two times per day (BID) for 10 days with test compounds re-suspended in 0.5% HPMC and 0.1% Tween-80. Tissue samples were collected and snap frozen for RNA purification.
Tissue samples (20-40 mg) are homogenized in QIAzol Lysis Reagent for 2 minutes at 20 Hz in the TissueLyser II using one stainless steel bead. After addition of chloroform, the homogenate is separated into aqueous and organic phases by centrifugation. RNA partitioned to the upper, aqueous phase is extracted and ethanol is added to provide appropriate binding conditions. The sample is then applied to the RNeasy spin column from the RNeasy Mini Kit, where total RNA binds to the membrane. The RNA is eluted in RNase-free water then stored at −20° C. and subsequently analyzed using the TaqMan RT-qPCR on the 7900HT Thermocycler. Total RNA is diluted ten fold and 2.5 μL of the diluted sample is added to the TaqMan RT-qPCR mixture.
SMN2 spliced products are identified using the following primers and probe in Table 7. Primer SMN FL Forward B (SEQ ID NO. 7) hybridizes to a nucleotide sequence in exons 7 and 8, primer SMN Δ7 Forward B (SEQ ID NO. 8) hybridizes to a nucleotide sequence in exons 6 and 8, primer SMN Reverse B (SEQ ID NO. 9) hybridizes to a nucleotide sequence in exon 8, probe SMN Probe B (SEQ ID NO. 10) hybridizes to a nucleotide sequence in exon 8. These primers and probe hybridize to nucleotide sequences common to human SMN1 and SMN2 mRNA. Since the SMA patient cells used in Example 5 contain only the SMN2 gene, RT-qPCR can quantify only SMN2 full-length and Δ7 mRNA.
The SMN forward and reverse primers are used at final concentrations of 0.4 μM. The SMN probe is used at a final concentration of 0.15 μM. The SMN-GAPDH Mix (10 μL total volume) is prepared by combining 5 μL of 2× RT-PCR buffer, 0.4 μL of 25× RT-PCR enzyme mix, 0.5 μL of 20× GAPDH primer-probe mix, 1.505 μL of water, 2.5 μL of RNA solution, 0.04 μL of 100 μM forward primer, 0.04 μL of 100 μM reverse primer, and 0.015 μL of 100 μM SMN probe. […]
The increase of SMN2 FL and decrease in SMN2 Δ7 mRNA relative to those in tissues from animals treated with vehicle control are determined from real-time PCR data using a modified ΔΔCt method (as described in Livak and Schmittgen, Methods, 2001, 25:402-8). The amplification efficiency (E) is calculated from the slope of the amplification curve for SMN2 FL, SMN2 Δ7, and GAPDH individually. The abundances of SMN2 FL, SMN2 Δ7, and GAPDH are then calculated as (1+E)^−Ct, where Ct is the threshold value for each amplicon. […]

| SMILES | SMN2 FL mRNA | SMN2 Δ7 mRNA |
| --- | --- | --- |
| COc1ccc(-c2cc(=O)n3cc(N4CCNCC4)ccc3n2)cc1OC [Cpd 6, 2-(3,4-dimethoxyphenyl)-7-(piperazin-1-yl)-4H-pyrido[1,2-a]pyrimidin-4-one] | substantially more SMN2 FL mRNA | less SMN2 Δ7 mRNA |
| Cc1cn2nc(-c3cc(=O)n4cc(N5CCN(C)CC5)ccc4n3)cc2c(C)n1 [Cpd 170, 2-(4,6-dimethylpyrazolo[1,5-a]pyrazin-2-yl)-7-(4-methylpiperazin-1-yl)-4H-pyrido[1,2-a]pyrimidin-4-one] | substantially more SMN2 FL mRNA | less SMN2 Δ7 mRNA |

Source: US11753407B2, “Compounds for treating spinal muscular atrophy” (PTC Therapeutics, Inc., priority 2012, dated 2023)
